Assay results from patent US20160311788A1, “Antifouling Compounds And Use Thereof” (National University of Singapore, priority 2008, published 2016).
Read-outs that look alike come from different tables or passages of the source.

How the values were obtained:
[1] = tested on: marine bacteria strain S18; test: disc inhibition assay, strain S18; assay type: cell-based, Microbacterium esteraromaticum; conditions: for zone of inhibition at 50 µg/disc: Microbacterium esteraromaticum, S18, 24 h
Protocol: (§1) The disc inhibition assay was used. This assay is a conventional method routinely used for screening antibacterial compounds to determine degree of susceptibility to antibacterial compounds. The diameter of the zone of inhibition is proportional to the degree of susceptibility of the bacterial strain. The compounds were tested against 13 strains of marine bacteria isolated from Singapore coastal waters.
(§2) 13 strains of marine bacteria were isolated from fouling communities located in the coastal waters around Singapore. These were characterized in earlier studies and reported in Teo et al. (U.S. patent application Ser. No. 11/265,833) and Choong et al (in prep). In addition, four reference bacterial strains were added tested: Escherichia coli (Strain K12, ATCC 15222), E. coli (strain DH5a), Pseudomonas aeruginosa (strain LMG 12228; ATCC 15692) and P. putida (strain KT2440; ATCC 47054). All the bacteria were also tested against five antibiotics: ampicillin (AMP), tetracycline (TETR), erythromycin (ERY), chloramphenicol (CHL) and streptomycin (STREP).
(§3) Disks comprising the compounds to be tested were prepared as follows. The antibacterial assay, the pure compounds were made up to a concentration of 2 mgml^−1 in DMSO. […] Equivalent volume of DMSO was used inoculated for the control.
(§4) For all disk inhibition assays, bacterial cultures were grown in marine broth (Pronadisa #1217.00). Sterile swabs dipped into the cultures were used to inoculate Marine Agar plates with a bacterial lawn by smearing the culture over the surface. After inoculating the plates, discs with antibiotics, pharmaceuticals or control blanks were placed on each plate. Each concentration of antibiotic or pharmaceutical was tested with two replicates. After the disks were placed on the agar surface, plates were incubated overnight in the dark at 35° C. After incubation, plates were examined for zones of inhibition or clearing around control and treated disks. The diameter of any zone of clearing or inhibition was measured using Vernier calipers. There were two replicates per treatment, and the average was taken.

[2] = tested on: marine bacteria strain S10; test: disc inhibition assay, strain S10; assay type: cell-based, Halobacillus trueperi; conditions: for zone of inhibition at 50 µg/disc: Halobacillus trueperi, S10, 24 h
Protocol: as §1, §2
(§5) Disks comprising the compounds to be tested were prepared as follows. The antibacterial assay, the pure compounds were made up to a concentration of 2 mgml^−1 in DMSO. 25 μl of the stock was pipetted onto each 6 mm sterile disc (Macherey-Nagel #484000) to obtain 50 μg of compound per disc. Equivalent volume of DMSO was used inoculated for the control.
as §4

[3] = tested on: marine bacteria strain S16; test: disc inhibition assay, strain S16; assay type: cell-based, Pseudoalteromonas piscicida; conditions: for zone of inhibition at 50 µg/disc: Pseudoalteromonas piscicida, S16, 24 h; for antibacterial activity in words: strain S16
Protocol: as §1, §2, §5, §4

[4] = tested on: marine bacteria strain S3; test: disc inhibition assay, strain S3; assay type: cell-based, Erythrobacter aquimaris; conditions: for zone of inhibition at 50 µg/disc: Qipengyuania aquimaris, S3, 24 h
Protocol: as §1, §2, §5, §4

[5] = tested on: marine bacteria strain S14; test: disc inhibition assay, strain S14; assay type: cell-based, Vibrio probioticus; conditions: strain 14, 50 μg of compound per disc
Protocol: as §1, §2, §3, §4

[6] = tested on: marine bacteria strain S28; test: disc inhibition assay, strain S28; assay type: cell-based, Arthrobacter protophormial; conditions: for zone of inhibition at 50 µg/disc: Arthrobacter, S28, 24 h
Protocol: as §1, §2, §5, §4

[7] = tested on: marine bacteria strain S1; test: disc inhibition assay, strain S1; assay type: cell-based, Rhodovulum iodosum; conditions: strain 1, 50 μg of compound per disc
Protocol: as §1, §2, §5, §4

[8] = tested on: marine bacteria strain S27; test: disc inhibition assay, strain S27; assay type: cell-based, Tenacibaculum lutimaris; conditions: strain 27, 50 μg of compound per disc; for zone of inhibition at 50 µg/disc: Tenacibaculum lutimaris, S27, 24 h, read-out: zone of inhibition
Protocol: as §1, §2, §5, §4

[9] = tested on: marine bacteria strain S9; test: disc inhibition assay, strain S9; assay type: cell-based, Bacillus algicola; conditions: for zone of inhibition at 50 µg/disc: Guptibacillus algicola, S9, 24 h
Protocol: as §1, §2, §5, §4

[10] = tested on: marine bacteria strain S4; test: disc inhibition assay, strain S4; assay type: cell-based, Bacillus algicola; conditions: for zone of inhibition at 50 µg/disc: Guptibacillus algicola, S4, 24 h
Protocol: as §1, §2, §5, §4

[11] = tested on: marine bacteria strain S29; test: disc inhibition assay, strain S29; assay type: cell-based, Bacillus hwajinpoensis; conditions: for zone of inhibition at 50 µg/disc: Guptibacillus hwajinpoensis, S29, 24 h
Protocol: as §1, §2, §5, §4

[12] = tested on: marine bacteria strain S17; test: disc inhibition assay, strain S17; assay type: cell-based, Gordonia terrae; conditions: for zone of inhibition at 50 µg/disc: Gordonia terrae, S17, 24 h
Protocol: as §1, §2, §5, §4

[13] = tested on: marine bacteria strain S30; test: disc inhibition assay, strain S30; assay type: cell-based, Bacillus borophilicus; conditions: for zone of inhibition at 50 µg/disc: Bacillus, S30, 24 h
Protocol: as §1, §2, §5, §4

[14] = strain 18, 50 μg of compound per disc
[15] = strain 10, 50 μg of compound per disc
[16] = strain 16, 50 μg of compound per disc
[17] = strain 3, 50 μg of compound per disc
[18] = strain 28, 50 μg of compound per disc
[19] = strain 9, 50 μg of compound per disc
[20] = strain 4, 50 μg of compound per disc
[21] = strain 29, 50 μg of compound per disc, read-out: zone of inhibition
[22] = strain 17, 50 μg of compound per disc
[23] = strain 30, 50 μg of compound per disc
[24] = strain 29, 50 μg of compound per disc
[25] = strain 16, 50 μg of compound per disc, read-out: zone of inhibition
[26] = strain 18, 50 μg of compound per disc, read-out: zone of inhibition
[27] = strain 10, 50 μg of compound per disc, read-out: zone of inhibition
[28] = strain 3, 50 μg of compound per disc, read-out: zone of inhibition
[29] = strain 9, 50 μg of compound per disc, read-out: zone of inhibition
[30] = strain 4, 50 μg of compound per disc, read-out: zone of inhibition
[31] = strain 17, 50 μg of compound per disc, read-out: zone of inhibition

Compound	zone of inhibition [1, 14]	zone of inhibition [2, 15]	zone of inhibition [3, 16]	zone of inhibition [4, 17]	zone of inhibition [5]	zone of inhibition [6, 18]	zone of inhibition [7]	zone of inhibition [8]	zone of inhibition [9, 19]	zone of inhibition [10, 20]	zone of inhibition [12, 22]	zone of inhibition [13, 23]	zone of inhibition [11, 24]	other results
O=C(C(CCCCC(O)CO)c1ccccc1)N1CCCCC1 (stereo not shown) [Compound 12.5]	−	−	−	−	−	−	−	−	−	−	−	−		zone of inhibition at 50 µg/disc [11, 21]: 2 to 5 mm
CN(C)C(=O)C(CCN1CCCCC1)(c1ccccc1)c1ccccc1 [Compound 9.1, N, N-Dimethyl-2,2-diphenyl-4-(piperidin-1-yl)butanamide]		−	−	−	−	−	−	−		−	−	−	−	zone of inhibition at 50 µg/disc [1]: 2 to 5 mm; zone of inhibition at 50 µg/disc [9]: 2 to 5 mm
O=C(Cc1ccccc1)N1CCCCC1 [Compound 10.5]	−	−		−	−	−	−	−	−	−	−	−	−	zone of inhibition at 50 µg/disc [3, 25]: 5 to 10 mm
CC(=O)OC1(c2ccc(Cl)cc2)CCN(CCC(C(=O)N(C)C)(c2ccccc2)c2ccccc2)CC1 [Compound 5.3]			−		−		−	−						zone of inhibition at 50 µg/disc [1]: 2 to 5 mm; zone of inhibition at 50 µg/disc [2]: 5 to 10 mm; zone of inhibition at 50 µg/disc [4]: 5 to 10 mm; zone of inhibition at 50 µg/disc [6]: 2 to 5 mm; zone of inhibition at 50 µg/disc [9]: 2 to 5 mm; zone of inhibition at 50 µg/disc [10]: 2 to 5 mm; zone of inhibition at 50 µg/disc [11]: 2 to 5 mm; zone of inhibition at 50 µg/disc [12]: 2 to 5 mm; zone of inhibition at 50 µg/disc [13]: 2 to 5 mm
CCCCC(CCCCC(O)CO)C(=O)N1CCCCC1 (stereo not shown) [Compound 12.6]	−	−	−	−	−	−	−	−	−	−	−	−	−	
CN(C)C(=O)C(CC[N+]1(O)CCC(O)(c2ccc(Cl)cc2)CC1)(c1ccccc1)c1ccccc1 (stereo not shown) [Compound 5.1]	−	−			−	−	−	−	−	−		−	−	zone of inhibition at 50 µg/disc [3]: 2 to 5 mm; zone of inhibition at 50 µg/disc [4]: 2 to 5 mm; zone of inhibition at 50 µg/disc [12]: 2 to 5 mm
CCCCC(C(=O)N1CCCCC1)c1ccccc1 (stereo not shown) [Compound 12.1, 2-Phenyl-1-(piperidin-1-yl)hexan-1-one]			−		−		−							zone of inhibition at 50 µg/disc [1, 26]: 2 to 5 mm; zone of inhibition at 50 µg/disc [2, 27]: 2 to 5 mm; zone of inhibition at 50 µg/disc [4, 28]: 5 to 10 mm; zone of inhibition at 50 µg/disc ([6]; strain 28, 50 μg of compound per disc, read-out: zone of inhibition): 2 to 5 mm; zone of inhibition at 50 µg/disc [8]: 2 to 5 mm; zone of inhibition at 50 µg/disc [9, 29]: 2 to 5 mm; zone of inhibition at 50 µg/disc [10, 30]: 2 to 5 mm; zone of inhibition at 50 µg/disc [11, 21]: 2 to 5 mm; zone of inhibition at 50 µg/disc [12, 31]: 2 to 5 mm; zone of inhibition at 50 µg/disc ([13]; strain 30, 50 μg of compound per disc, read-out: zone of inhibition): 2 to 5 mm
C/C=C/C=C/C(=O)N1CCCCC1 [Compound 11.4]														antibacterial activity in words [3]: susceptible
CCCCCC(=O)N(C)C [Compound 11.2]	−	−		−	−	−	−	−	−	−	−	−	−	zone of inhibition at 50 µg/disc [3, 25]: 2 to 5 mm; antibacterial activity in words [3]: susceptible
O=C(C(c1ccccc1)c1ccccc1)N1CCC(O)(c2ccc(Cl)cc2)CC1 [Compound 4.3]	−	−	−		−	−	−	−	−	−	−	−	−	zone of inhibition at 50 µg/disc [4, 28]: 2 to 5 mm
O=C(C(c1ccccc1)c1ccccc1)N1CCC(O)CC1 [Compound 9.3]	−			−	−	−	−	−	−	−	−	−	−	zone of inhibition at 50 µg/disc [2, 27]: 2 to 5 mm; zone of inhibition at 50 µg/disc [3, 25]: 2 to 5 mm
C=CCCCCC(C(=O)N1CCCCC1)c1ccccc1 (stereo not shown) [Compound 12.4]			−		−	−	−					−		zone of inhibition at 50 µg/disc [1, 26]: 5 to 10 mm; zone of inhibition at 50 µg/disc [2, 27]: 2 to 5 mm; zone of inhibition at 50 µg/disc [4, 28]: > 10 mm; zone of inhibition at 50 µg/disc [8]: 2 to 5 mm; zone of inhibition at 50 µg/disc [9, 29]: 2 to 5 mm; zone of inhibition at 50 µg/disc [10, 30]: 2 to 5 mm; zone of inhibition at 50 µg/disc [11, 21]: 2 to 5 mm; zone of inhibition at 50 µg/disc [12, 31]: 2 to 5 mm
